Test results from US11254663B2 (BRISTOL-MYERS SQUIBB COMPANY, priority 2019, dated 2022).

Biological target: FXR (Homo sapiens (Human), UniProt Q96RI1)
Experiment: transient human FXR/Gal4-luciferase reporter assay
Format: cell-based
Conditions: not given
Method: A Gal4-hFXR fusion construct reporter system was used as the primary assay to characterize compound activity. A construct including 5 copies of the Gal4 promoter response element upstream of a firefly luciferase reporter cDNA was stably expressed in HEK293 cells. This reporter cell line was maintained in Dulbecco's Modified Eagle's medium (DMEM; Gibco) supplemented with 1% penicillin-streptomycin (P/S) solution, 500 μg/mL Zeocin and 10% charcoal/dextran-treated fetal bovine serum (cs-FBS) at 37° C. in a humidified 5% CO2 atmosphere. Another plasmid was constructed in which the human cytomegalovirus promoter in the pcDNA3.1 vector directs the expression of the cDNA encoding a fusion protein comprised of the DNA binding domain from the Gal4 transcription factor fused to the ligand binding domain from human FXR.
The day prior to transfection, the reporter cells in culture are detached from the plate with trypsin and plated into a T75 flask at a sufficient density to achieve approximately 90% confluence the next morning. The transfection reagents are prepared by separately diluting 25 μg of the pcDNA3.1-Gal4-FXR plasmid into 1.87 mL of Opti-MEM (Thermo-Fisher), and 40 μL of Lipofectamine 2000 (Thermo-Fisher) into 1.87 mL of Opti-MEM, and then adding the diluted DNA solution into the diluted Lipofectamine 2000 solution and incubating at room temperature for 15-20 minutes. The mixture is further diluted with 10 mL of a solution comprised of DMEM, 10% cs-FBS, and 1% P/S immediately prior to transferring to the cells. The maintenance culture media is aspirated from the cells and the final transfection mixture is added before the cells are incubated overnight at 37° C. in a humidified 5% CO2 atmosphere. This protocol can be scaled up, and the transiently transfected cells can be cryopreserved in an assay-ready format.
For compound testing, 100 nL of the compounds (serial dilutions in DMSO) are dispensed with an Echo acoustic dispenser (Labcyte) into the wells of a Corning/Costar clear bottom 384-well white plate. The transfected cells are harvested, counted, and diluted such that 10-25,000 cells in 25 μL are plated into each well of the 384-well compound assay plate. The compound-treated cells are incubated overnight at 37° C. in a humidified 5% CO2 atmosphere. The next morning 25 μL of Steady-Glo (Promega) are added to each well of the plate, the mixture is incubated for 15 min. with shaking, and luminescence is measured on an Envision (Perkin Elmer) plate reader.

Sequence of FXR (Q96RI1 262-486): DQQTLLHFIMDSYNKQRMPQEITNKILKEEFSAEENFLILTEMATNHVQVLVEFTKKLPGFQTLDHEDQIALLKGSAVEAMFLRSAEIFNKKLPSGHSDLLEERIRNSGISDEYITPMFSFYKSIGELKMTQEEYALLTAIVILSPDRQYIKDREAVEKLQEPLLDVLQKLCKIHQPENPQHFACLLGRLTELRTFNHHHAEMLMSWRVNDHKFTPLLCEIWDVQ

Structure (SMILES) | EC50
O=C(N(CC12CCC(c3noc(C4(C(F)(F)F)CC4)n3)(CC1)CC2)c1cccc(-c2cnc3nc(C4CC4)sc3c2)c1)C12CC(F)(C1)C2 [Example 526, N-(3-(2-cyclopropylthiazolo[4,5-b]pyridin-6-yl)phenyl)-3-fluoro-N-((4-(5-(1-(trifluoromethyl)cyclopropyl)-1,2,4-oxadiazol-3-yl)bicyclo[2.2.2]octan-1-yl)methyl) bicyclo[1.1.1]pentane-1-carboxamide] | 497 nM
O=C(N(CC12CCC(c3ccc(C(F)(F)F)cn3)(CC1)CC2)c1cccc(-c2ccc(OC(F)F)cc2)c1)C12CC(F)(C1)C2 [Example 493, N-(4′-(difluoromethoxy)-[1,1′-biphenyl]-3-yl)-3-fluoro-N-((4-(5-(trifluoromethyl)pyridin-2-yl)bicyclo[2.2.2]octan-1-yl)methyl)bicyclo[1.1.1]pentane-1-carboxamide] | 552 nM
CCOc1ccc(-c2cccc(N(CC34CCC(c5ccc(C(F)(F)F)cn5)(CC3)CC4)C(=O)C34CC(F)(C3)C4)c2)cn1 [Example 492, N-(3-(6-ethoxypyridin-3-yl)phenyl)-3-fluoro-N-((4-(5-(trifluoromethyl)pyridin-2-yl)bicyclo[2.2.2]octan-1-yl)methyl)bicyclo[1.1.1]pentane-1-carboxamide] | 567 nM

Same assay, conditions: Gal4-hFXR fusion construct, HEK293 reporter cells; response relative to 8 μM GW-4064

Structure (SMILES) | EC50
CCOc1ccc(-c2cccc(N(CC34CCC(c5noc(C(C)C)n5)(CC3)CC4)C(=O)C34CC(F)(C3)C4)c2)cn1 [Example 432, N-(3-(6-ethoxypyridin-3-yl)phenyl)-3-fluoro-N-((4-(5-isopropyl-1,2,4-oxadiazol-3-yl)bicyclo[2.2.2]octan-1-yl)methyl)bicyclo[1.1.1]pentane-1-carboxamide] | 51 nM
CCOc1ncc(-c2cccc(N(CC34CCC(c5nc(C(C)(C)C)no5)(CC3)CO4)C(=O)C34CC(F)(C3)C4)c2)cn1 [Example 553, N-((4-(3-(tert-butyl)-1,2,4-oxadiazol-5-yl)-2-oxabicyclo[2.2.2]octan-1-yl)methyl)-N-(3-(2-ethoxypyrimidin-5-yl)phenyl)-3-fluorobicyclo[1.1.1]pentane-1-carboxamide] | 1590 nM
O=C(N(CC12CCC(c3nc(C4CC4)no3)(CC1)CC2)c1cccc(-c2cnc(C3CC3)nc2)c1)C12CC(F)(C1)C2 [Example 271, N-((4-(3-cyclopropyl-1,2,4-oxadiazol-5-yl)bicyclo[2.2.2]octan-1-yl)methyl)-N-(3-(2-cyclopropylpyrimidin-5-yl)phenyl)-3-fluorobicyclo[1.1.1]pentane-1-carboxamide] | 23 nM
CC(C)Oc1ccc(-c2cccc(N(CC34CCC(c5noc(C(C)(F)F)n5)(CC3)CC4)C(=O)NC3CCOCC3)c2)cc1 [Example 652, 1-((4-(5-(1,1-difluoroethyl)-1,2,4-oxadiazol-3-yl)bicyclo[2.2.2]octan-1-yl)methyl)-1-(4′-isopropoxy-[1,1′-biphenyl]-3-yl)-3-(tetrahydro-2H-pyran-4-yl)urea] | 379 nM
CCOc1ccc(-c2cccc(N(CC34CCC(c5nc(C(C)C)no5)(CC3)CC4)C(=O)C34CC(F)(C3)C4)c2)cc1 [Example 375, N-(4′-ethoxy-[1,1′-biphenyl]-3-yl)-3-fluoro-N-((4-(3-isopropyl-1,2,4-oxadiazol-5-yl)bicyclo[2.2.2]octan-1-yl)methyl)bicyclo[1.1.1]pentane-1-carboxamide] | 61 nM
COc1ncc(-c2cccc(N(CC34CCC(c5nc(C(C)C)no5)(CC3)CC4)C(=O)C34CC(F)(C3)C4)c2)cn1 [Example 383, 3-Fluoro-N-((4-(3-isopropyl-1,2,4-oxadiazol-5-yl)bicyclo[2.2.2]octan-1-yl)methyl)-N-(3-(2-methoxypyrimidin-5-yl)phenyl)bicyclo[1.1.1]pentane-1-carboxamide] | 47 nM
CCOc1ncc(-c2cccc(N(CC34CCC(c5ccc(C(F)(F)F)cn5)(CC3)CC4)C(=O)C34CC(F)(C3)C4)c2)cn1 [Example 487, N-(3-(2-ethoxypyrimidin-5-yl)phenyl)-3-fluoro-N-((4-(5-(trifluoromethyl)pyridin-2-yl)bicyclo[2.2.2]octan-1-yl)methyl)bicyclo[1.1.1]pentane-1-carboxamide] | 418 nM
O=C(N(CC12CCC(c3nc(C4CC4)no3)(CC1)CC2)c1cccc(-c2cccc(OC(F)(F)C(F)F)c2)c1)C12CC(F)(C1)C2 [Example 299, N-((4-(3-cyclopropyl-1,2,4-oxadiazol-5-yl)bicyclo[2.2.2]octan-1-yl)methyl)-3-fluoro-N-(3′-(1,1,2,2-tetrafluoroethoxy)-[1,1′-biphenyl]-3-yl)bicyclo[1.1.1]pentane-1-carboxamide] | 660 nM
Cn1nc(C23CCC(CN(C(=O)C45CC(F)(C4)C5)c4cccc(-c5ccc6[nH]c(=O)oc6c5)c4)(CC2)CC3)cc1C1CC1 [Example 411, N-((4-(5-cyclopropyl-1-methyl-1H-pyrazol-3-yl)bicyclo[2.2.2]octan-1-yl)methyl)-3-fluoro-N-(3-(2-oxo-2,3-dihydrobenzo[d]oxazol-6-yl)phenyl)bicyclo[1.1.1]pentane-1-carboxamide] | 144 nM
Cc1nc2ccc(-c3ccnc(N(CC45CCC(c6nc(C(C)(C)C)no6)(CC4)CC5)C(=O)C45CC(F)(C4)C5)c3)cc2s1 [Example 551, N-((4-(3-(tert-butyl)-1,2,4-oxadiazol-5-yl)bicyclo[2.2.2]octan-1-yl)methyl)-3-fluoro-N-(4-(2-methylbenzo[d]thiazol-6-yl)pyridin-2-yl)bicyclo[1.1.1]pentane-1-carboxamide] | 55 nM
CC(C)Oc1ccc(-c2cc(N(CC34CCC(c5noc(C(C)(C)F)n5)(CC3)CC4)C(=O)N[C@H]3CC[C@](C)(OC(F)F)CC3)ccc2F)cc1 [Example 653, 3-((trans)-4-(difluoromethoxy)-4-methylcyclohexyl)-1-(6-fluoro-4′-isopropoxy-[1,1′-biphenyl]-3-yl)-1-((4-(5-(2-fluoropropan-2-yl)-1,2,4-oxadiazol-3-yl)bicyclo[2.2.2]octan-1-yl)methyl)urea] | 145 nM
CCOc1ncc(-c2cccc(N(CC34CCC(c5nc(C6CC6)no5)(CC3)CC4)C(=O)C34CC(F)(C3)C4)c2)cn1 [Example 289, N-((4-(3-cyclopropyl-1,2,4-oxadiazol-5-yl)bicyclo[2.2.2]octan-1-yl)methyl)-N-(3-(2-ethoxypyrimidin-5-yl)phenyl)-3-fluorobicyclo[1.1.1]pentane-1-carboxamide] | 48 nM
COc1nccc(-c2cccc(N(CC34CCC(c5nc(C6CC6)no5)(CC3)CC4)C(=O)C3CCC3)c2)n1 [Example 244, N-((4-(3-cyclopropyl-1,2,4-oxadiazol-5-yl)bicyclo[2.2.2]octan-1-yl)methyl)-N-(3-(2-methoxypyrimidin-4-yl)phenyl)cyclobutanecarboxamide] | 576 nM
COCc1ccc(-c2cccc(N(CC34CCC(c5nc(C(C)C)no5)(CC3)CC4)C(=O)C34CC(F)(C3)C4)c2)cn1 [Example 391, 3-fluoro-N-((4-(3-isopropyl-1,2,4-oxadiazol-5-yl)bicyclo[2.2.2]octan-1-yl)methyl)-N-(3-(6-(methoxymethyl)pyridin-3-yl)phenyl)bicyclo[1.1.1]pentane-1-carboxamide] | 147 nM
CCOc1ccc(-c2cccc(N(CC34CCC(c5noc(C(C)(F)F)n5)(CC3)CC4)C(=O)C34CC(F)(C3)C4)c2)cc1 [Example 527, N-((4-(5-(1,1-difluoroethyl)-1,2,4-oxadiazol-3-yl)bicyclo[2.2.2]octan-1-yl)methyl)-N-(4′-ethoxy-[1,1′-biphenyl]-3-yl)-3-fluorobicyclo[1.1.1]pentane-1-carboxamide] | 103 nM
O=C(N(CC12CCC(c3nc(C4CC4)no3)(CC1)CC2)c1cccc(-c2cccn3ccnc23)c1)C12CC(F)(C1)C2 [Example 330, N-((4-(3-cyclopropyl-1,2,4-oxadiazol-5-yl)bicyclo[2.2.2]octan-1-yl)methyl)-3-fluoro-N-(3-(imidazo[1,2-a]pyridin-8-yl)phenyl)bicyclo[1.1.1]pentane-1-carboxamide] | 392 nM
O=C(N(CC12CCC(c3nc(C4CC4)no3)(CC1)CC2)c1cccc(-c2nc(Cl)nn3cccc23)c1)C12CC(F)(C1)C2 [Example 315, N-(3-(2-chloropyrrolo[2,1-f][1,2,4]triazin-4-yl)phenyl)-N-((4-(3-cyclopropyl-1,2,4-oxadiazol-5-yl)bicyclo[2.2.2]octan-1-yl)methyl)-3-fluorobicyclo[1.1.1]pentane-1-carboxamide] | 913 nM
